Marks after values point to notes of the source that are not given here.
Experiments:
[1] = Chemical stability of MI solutions on storage (HPLC, % active ingredient remaining); format: physicochemical; conditions: ± 1-2%
[2] = Physical stability of MI solutions on storage (homogeneity, clarity, crystallization, precipitation, phase separation); format: physicochemical
Experimental: By “physically stable” we mean that the compositions are homogeneous and fluid at temperatures of 20 to 25° C. for at least 24 hours. Preferably the compositions are physically stable at 20° C. and below for at least 3 days, more preferably for at least 2 weeks, and most preferably for at least 4 weeks. In addition, it is desirable that the compositions retain their physical stability for similar time periods at temperatures of 15° C. and below, and preferably at 5° C. and below.
Samples of technical grade 2-methyl-3-isothiazolone (MI) were used to prepare solutions of the NHITA in various solvents at different concentrations. […] Solutions were prepared by adding a weighed amount of molten MI (melted at about 55° C.) to a weighed amount of deionized water (or a solvent or a solvent-water mixture) in a 20-milliliter (ml) vial; the mixture was swirled and allowed to cool to room temperature. The prepared samples were allowed to stand at room temperature (20-25° C.) for 24 hours and then subjected to storage at cooler temperatures (5° C. and −17° C.) for at least 72 hours; observations were made at each condition to determine physical stability (homogeneity, clarity, crystallization, precipitation, phase separation). The samples were considered physically stable if no crystallization, phase separation or precipitation occurred; concentrations (or concentration ranges) at which the compositions were unstable are indicated by ** superscript, otherwise concentrations (ranges) listed were stable; results are summarized in Table I (concentrations are weight % MI).

[3] = solvent DEC (diethyl carbonate), 20-25° C., 24 hours
[4] = solvent DME (1,2-dimethoxyethane), 20-25° C., 24 hours
[5] = solvent DMSO, 20-25° C., 24 hours
[6] = solvent IPA (isopropanol), 5° C., at least 72 hours
[7] = solvent MeOH, 5° C., at least 72 hours
[8] = solvent PC (propylene carbonate), 20-25° C., 24 hours
[9] = solvent PG (propylene glycol), 5° C., at least 72 hours
[10] = solvent Water, 5° C., at least 72 hours
[11] = solvent Water, 20-25° C., 24 hours
[12] = solvent Water, −17° C., at least 72 hours

Cn1sccc1=O [MI, 2-Methyl-3-isothiazolone]
% Active Ingredient (MI) Remaining ([1]; initial MI concentration 68, PG, 40° C./11 days): 100% | % Active Ingredient (MI) Remaining ([1]; initial MI concentration 78, MeOH, 40° C./11 days): 104% | % Active Ingredient (MI) Remaining ([1]; initial MI concentration 85.8, Water, 55° C./4 weeks): 97.1% | % Active Ingredient (MI) Remaining ([1]; initial MI concentration 88, 50/50 MeOH/Water, 40° C./11 days): 101% | time solution remained stable ([2]; 80% MI solution in water, 5° C.): at least 4 months | time solution remained stable ([2]; 90% MI solution in water, 5° C.): at least 4 months | MI concentration physically stable ([2]; solvent 50/50 MeOH/Water, 5° C., at least 72 hours): 88 weight % | MI concentration physically stable ([2]; solvent 50/50 MeOH/Water, 20-25° C., 24 hours): 88 weight % | MI concentration physically unstable (crystal formation or insoluble) ([2]; solvent 50/50 MeOH/Water, −17° C., at least 72 hours): 88** weight % | MI concentration physically unstable (crystal formation or insoluble) ([2]; solvent BEE (2-(2-butoxyethoxyl)ethanol), 5° C., at least 72 hours): 68-88** weight % | MI concentration physically stable ([2]; solvent BEE (2-(2-butoxyethoxyl)ethanol), 20-25° C., 24 hours): 68-88 weight % | MI concentration physically unstable (crystal formation or insoluble) ([2]; solvent DEC (diethyl carbonate), 5° C., at least 72 hours): 70** weight % | MI concentration physically stable [2, 3]: 70 weight % | MI concentration physically unstable (crystal formation or insoluble) [2, 3]: 80-90 weight % | MI concentration physically unstable (crystal formation or insoluble) ([2]; solvent DME (1,2-dimethoxyethane), 5° C., at least 72 hours): 70-80** weight % | MI concentration physically stable [2, 4]: 70-80 weight % | MI concentration physically unstable (crystal formation or insoluble) [2, 4]: 90 weight % | MI concentration physically unstable (crystal formation or insoluble) ([2]; solvent DMSO, 5° C., at least 72 hours): 70-80** weight % | MI concentration physically stable [2, 5]: 70-80 weight % | MI concentration physically unstable (crystal formation or insoluble) [2, 5]: 90 weight % | MI concentration physically unstable (crystal formation or insoluble) ([2]; solvent DPG (dipropylene glycol), 5° C., at least 72 hours): 75-90** weight % | MI concentration physically stable ([2]; solvent DPG (dipropylene glycol), 20-25° C., 24 hours): 75-90 weight % | MI concentration physically stable [2, 6]: 78 weight % | MI concentration physically unstable (crystal formation or insoluble) [2, 6]: 88 weight % | MI concentration physically stable ([2]; solvent IPA (isopropanol), 20-25° C., 24 hours): 78-88 weight % | MI concentration physically unstable (crystal formation or insoluble) ([2]; solvent IPA (isopropanol), −17° C., at least 72 hours): 78** weight % | MI concentration physically stable [2, 7]: 78 weight % | MI concentration physically unstable (crystal formation or insoluble) [2, 7]: 88 weight % | MI concentration physically stable ([2]; solvent MeOH, 20-25° C., 24 hours): 78-88 weight % | MI concentration physically stable ([2]; solvent MeOH, −17° C., at least 72 hours): 78 weight % | MI concentration physically unstable (crystal formation or insoluble) ([2]; solvent PC (propylene carbonate), 5° C., at least 72 hours): 69** weight % | MI concentration physically stable [2, 8]: 69 weight % | MI concentration physically unstable (crystal formation or insoluble) [2, 8]: 80-90 weight % | MI concentration physically stable [2, 9]: 68 weight % | MI concentration physically unstable (crystal formation or insoluble) [2, 9]: 78-88 weight % | MI concentration physically stable ([2]; solvent PG (propylene glycol), 20-25° C., 24 hours): 68-88 weight % | MI concentration physically stable ([2]; solvent PG (propylene glycol), −17° C., at least 72 hours): 68 weight % | MI concentration physically stable [2, 10]: 60-89.5 weight % | MI concentration physically unstable (crystal formation or insoluble) [2, 10]: 90.5 weight % | MI concentration physically stable [2, 11]: 60-94.4 weight % | MI concentration physically unstable (crystal formation or insoluble) [2, 11]: 95.4 weight % | MI concentration physically stable [2, 12]: 70-77 weight % | MI concentration physically unstable (crystal formation or insoluble) [2, 12]: 88 weight % | MI concentration physically stable ([2]; solvent φCH2OH (benzyl alcohol), 5° C., at least 72 hours): 60 weight % | MI concentration physically stable ([2]; solvent φCH2OH (benzyl alcohol), 20-25° C., 24 hours): 60 weight % | MI concentration physically unstable (crystal formation or insoluble) ([2]; solvent φCH2OH (benzyl alcohol), −17° C., at least 72 hours): 60** weight % | MI concentration physically stable ([2]; solvent φOCH2CH2OH (phenoxyethanol), 5° C., at least 72 hours): 60 weight % | MI concentration physically stable ([2]; solvent φOCH2CH2OH (phenoxyethanol), 20-25° C., 24 hours): 60 weight % | MI concentration physically unstable (crystal formation or insoluble) ([2]; solvent φOCH2CH2OH (phenoxyethanol), −17° C., at least 72 hours): 60** weight %
